According to publication PMC12484522, “Neuroprotective effects of chemical constituents from Nicotiana tabacum L. in Parkinson’s disease” (Natural Products and Bioprospecting, 2025):
“Also recorded” adds a separate entry of the source. Where two headings read alike, the source gives them in different places. One block for each compound: values may come before it.

Tests used:
MAO-B [1] = molecular target: T1, MAO-B (Homo sapiens, UniProt P27338); experiment: MAO-B inhibition assay (kynuramine, fluorescence); type: biochemical
T1 sequence (P27338 1-520): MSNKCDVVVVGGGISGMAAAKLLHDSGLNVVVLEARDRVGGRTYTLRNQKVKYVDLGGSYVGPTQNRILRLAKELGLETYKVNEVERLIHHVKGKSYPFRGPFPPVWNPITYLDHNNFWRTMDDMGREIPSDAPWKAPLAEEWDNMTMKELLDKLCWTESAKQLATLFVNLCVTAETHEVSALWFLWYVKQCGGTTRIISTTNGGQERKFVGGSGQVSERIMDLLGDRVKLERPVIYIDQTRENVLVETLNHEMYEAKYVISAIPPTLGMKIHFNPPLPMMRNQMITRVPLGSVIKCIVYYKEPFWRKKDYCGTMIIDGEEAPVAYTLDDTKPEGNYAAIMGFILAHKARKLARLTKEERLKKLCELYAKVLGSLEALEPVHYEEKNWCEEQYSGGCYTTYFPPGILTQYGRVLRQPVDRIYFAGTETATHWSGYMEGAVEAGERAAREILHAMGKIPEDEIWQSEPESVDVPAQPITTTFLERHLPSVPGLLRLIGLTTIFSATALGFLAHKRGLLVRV
Experimental: In preparing the microplates, 50 μL of MAO-B (2.5 U/mL) was combined with 100 μL of the test compounds at different concentrations. This mixture was incubated at 37 °C for 10 min. […] Next, 50 μL of kynuramine (0.2 mM) sourced from Macklin in Shanghai, China, was added to the mixture. The resulting mixture was incubated at 37 °C for an additional 30 min. The reaction was halted by adding 80 μL of 2 N NaOH. Ultimately, the enzyme activity was measured using a microplate reader, with the excitation and emission wavelengths set at 310 nm and 400 nm, respectively.

MAO-B [2] = molecular target: T1, MAO-B; experiment: Kinetic studies of MAO-B inhibition (Lineweaver–Burk plots); type: biochemical
Experimental: The kinetic study of MAO-B inhibition was the Lineweaver–Burk plot, which was performed using the Lineweaver–Burk curve method. […] Kinetic characterization of their MAO-B inhibition was recorded 20 min after initiation. Constants Kis and Ki were calculated using the Lineweaver–Burk plots.

[3] = ABTS+ radical scavenging assay; details: for IC50: read-out: ABTS+ IC50 (μM) ± SD
Experimental: Various concentrations of the compounds (60 μL each) were then combined with 150 μL of the diluted ABTS^+ solution. The reaction was maintained in the dark at 30 °C for 6 min. Afterwards, the absorbance was determined at 734 nm with a microplate reader. The calculation of ABTS radical scavenging activity followed the same method as for DPPH radical scavenging activity. IC50 values were determined using GraphPad Prism 7.0, and all tests were conducted in triplicate.

[4] = tested on: dopamine levels and striatal DOPAC; design: method as in PMID 26796202; details: intraperitoneal, 80 mg/kg; cited from earlier work
murine MAO-B = molecular target: murine MAO-B; design: method as in PMID 26796202; details: cited from earlier work
MAO-B over MAO-A = details: cited from earlier work
human MAO-B = molecular target: human MAO-B; design: method as in PMID 26796202; details: selective and reversible inhibition; cited from earlier work
[5] = tested on: 6-OHDA-induced PC12 cells; experiment: Neuroprotective effect in 6-OHDA-induced PC12 cells (CCK-8 cell viability); type: cell-based
Experimental: Two-dimensional (2D) cell culture models were used for performing cell viability assays. Approximately 10,000 PC12 cells (Fenghui, Changsha, China) were seeded into each well of a 96-well plate. The cells underwent pre-treatment with the test compounds for 2 h at 37 °C. […] The plate was incubated at 37 °C for 1 h after adding 10 μL of CCK-8 solution (ProteinTech, Chicago, USA) to each well. Then, each well's optical density (OD) was measured at 450 nm using a multimode microplate reader (Waltham, MA, USA).

PC12 cell = experiment: Cytotoxicity experiment on PC12 cells; type: cell-based; details: 0.5–100 μM
[6] = DPPH radical scavenging assay; details: for IC50: read-out: DPPH IC50 (μM) ± SD
Experimental: The antioxidative capacity of the obtained compounds was carried out through DPPH radical scavenging assays and ABTS assay (Macklin, Shanghai, China) with some modifications, and Vitamin C was used as the positive control. In the DPPH assay, 60 μL of the isolates at varying concentrations were mixed with 100 μL of 100 μM DPPH solution in ethanol in a 96-well microplate. The mixture was shaken for 10 s and then allowed to sit in darkness at 30 °C for 5 min. Subsequently, the absorbance was determined using a microplate reader at a wavelength of 517 nm. The radical-scavenging activity of the compounds was assessed using the formula RSA (%) = [(AB-AA)/AB] × 100%, where AA was the absorbance of the sample and AB was the absorbance of the blank sample. The IC50 value was calculated with GraphPad Prism 7.0, and all experiments were conducted in triplicate.

[7] = MAO-B, dose–response, read-out: IC50 (μM) ± SD
[8] = MAO-B, 50 μM, read-out: Inhibition rate ± SD (%) (50 μM)

Compound: CCC1=C(/C=C/C(O)CCCCCCCC(=O)OC)CCC1=O (stereo not drawn) [10/11, phytoprostanes B1 type II]
IC50 (MAO-B [1]; [7]): 37.7 ± 1.57 µM
Inhibition mechanism against MAO-B (MAO-B [2]): competitive MAO-B inhibitors; also recorded: competitive inhibition mechanism

Compound: CC(=O)/C=C/C/C(C)=C/CC/C(C)=C/CC/C(C)=C/CC/C(C)=C/CO [Compound 1, Nicotiazanorpenoid A]
inhibition at 50 µM (MAO-B [1]; [8]): 15.4 ± 8.16%

Compound: COc1cc2ccc(=O)oc2cc1O [Compound 3, scopoletin]
IC50 (MAO-B [1]): 40.2 ± 1.21 µM
ABTS+ RSA ± SD (50 μM) [3]: 68.91 ± 1.75%
IC50 [3]: 27.7 ± 1.2 µM
Dopamine levels [4]: significantly elevated
Striatal metabolite 3,4-dihydroxyphenylacetic acid (DOPAC) [4]: reducing
Ki (murine MAO-B): 22 µM
Selectivity for MAO-B over MAO-A (MAO-B over MAO-A): approximately 3.5 fold
Ki (human MAO-B): 20.7 µM
Inhibition mechanism against MAO-B (MAO-B [2]): non-competitive inhibitor
Ki (MAO-B [2]; MAO-B, read-out: Ki value (equilibrium constant for inhibitor-enzyme binding)): 78.8 µM

Compound: CC(C)c1cc2c(cc1O)[C@@]1(C)CCCC(C)(C)[C@@H]1CC2 [Compound 8, ferruginol]
inhibition at 50 µM (MAO-B [1]; read-out: Inhibition rate ± SD (%) (50 μM), MAO-B, 50 μM): 17.5 ± 1.5%

Compound: CC(C)c1cc2c(cc1O)[C@@]1(C)CCCC(C)(C)[C@@H]1C=C2 [Compound 9, 6,7-dehydroferruginol]
inhibition at 50 µM (MAO-B [1]; [8]): 7.04 ± 4.08%

Compound: CC/C=C\C/C=C\C/C=C\CCCCCC(=O)OC [Compound 14, Methyl (7Z,10Z,13Z)-7,10,13-hexadecatrienoate]
Neuroprotective effect at various concentrations ([5]; 0.5–100 μM): enhanced cell viability across all tested concentrations, except 50 μM
viability at 5 µM ([5]; Rattus norvegicus, PC-12, 5 μM (best concentration)): 93.9%
viability at 100 µM ([5]; Rattus norvegicus, PC-12, 100 μM, model group 63.58%): 87.1%
inhibition at 50 µM (MAO-B [1]; [8]): > 30%
IC50 (MAO-B [1]; [7]): 201 ± 7.03 µM
Cytotoxicity (PC12 cell): extremely low cytotoxicity

Compound: COc1cc(C(=O)CCO)ccc1O [Compound 21, β-hydroxypropiovanillone]
inhibition at 50 µM (MAO-B [1]; read-out: Inhibition rate ± SD (%) (50 μM)): 11.2 ± 1.81%
ABTS+ RSA ± SD (50 μM) [3]: 36.36 ± 1.01%
IC50 [3]: 348 ± 17.5 µM

Compound: C#CCN[C@@H]1CCc2ccccc21 [Rasagiline, rasagiline, reference compound]
Cell viability ([5]; positive control, abstract: at equivalent concentrations): 88.36%

Compound: isoferulic acid [Compound 6]
ABTS+ RSA ± SD (50 μM) [3]: 92.90 ± 0.45%
IC50 [3]: 18.1 ± 2.49 µM
DPPH RSA ± SD (50 μM) [6]: 36.00 ± 1.01%
IC50 [6]: 152 ± 1.75 µM

Now from value to compound, other results behind:

inhibition at 50 µM (MAO-B [1]; [8]): 11 ± 3.99%
Compound: C=C(C)/C=C/[C@@H](CC/C(C)=C/CC/C(C)=C/C=O)C(C)C [Compound 2, 2,6,11,13-tetradecatetraenal-3,7,13-trimethyl-10-(1-methylethyl)]

inhibition at 50 µM (MAO-B [1]; [8]): 16.5 ± 7.04%
Compound: CC1=CC(=O)CC(C)(C)[C@H]1CC[C@@H](C)O [Compound 4, blumenol C]

inhibition at 50 µM (MAO-B [1]; [8]): 24 ± 8.05%
Compound: CC1=CC(=O)CC(C)(C)[C@H]1/C=C/[C@@H](C)O [Compound 5, (6R,9S)-3-oxo-α-ionol]

inhibition at 50 µM (MAO-B [1]; [8]): 14.4 ± 4.04%
Compound: OCCc1ccccc1 [Compound 7, 2-phenylethanol]

inhibition at 50 µM (MAO-B [1]; [8]): 18 ± 4.32%
Compound: CCCCC/C=C\C/C=C\CCCCCCCC(=O)O [Compound 15, linolic acid]

inhibition at 50 µM (MAO-B [1]; [8]): 22.2 ± 5.24%
Compound: COCc1ccc(C=O)[nH]1 [Compound 16, 5-(methoxymethyl)-1H-pyrrole-2-carboxaldehyde]

inhibition at 50 µM (MAO-B [1]; [8]): 17.1 ± 5.06%
Compound: COC(=O)c1ccc(O)cn1 [Compound 17, methyl 5-hydroxypicolinate]

inhibition at 50 µM (MAO-B [1]; [8]): 8.29 ± 3.9%
Compound: O=C(O)c1ccc(O)cc1 [Compound 18, paraben-acid]

inhibition at 50 µM (MAO-B [1]; [8]): 3.71 ± 4.89%
IC50 [3]: 84.06 ± 0.76 µM
Compound: COc1cc(C(CO)OC)ccc1O (stereo not drawn) [Compound 19, 4-hydroxy-β,3-dimethoxybenzeneethanol]
ABTS+ RSA ± SD (50 μM) [3]: 59.17 ± 3.59%

inhibition at 50 µM (MAO-B [1]; [8]): 2.98 ± 2.8%
IC50 [3]: 60.5 ± 1.18 µM
Compound: COc1cc(CCO)ccc1O [Compound 20, homovanillic alcohol]
ABTS+ RSA ± SD (50 μM) [3]: 57.38 ± 1.01%

inhibition at 50 µM (MAO-B [1]; [8]): 1.05 ± 3.46%
Compound: O=C1C=CCCN1 [Compound 22, 5,6-dihydropyridin-2(1H)-one]

IC50 [3]: 14.46 ± 0.03 µM
IC50 [6]: 9.12 ± 0.25 µM
Compound: O=C1O[C@H]([C@@H](O)CO)C(O)=C1O [Vitamin C, ascorbic acid, reference compound]
ABTS+ RSA ± SD (50 μM) [3]: 99.80 ± 0.09%
DPPH RSA ± SD (50 μM) [6]: 99.97 ± 0.05%
